The results in this text go back to paper PMC5371550, “GABAB receptor attenuation of GABAA currents in neurons of the mammalian central nervous system” (Physiological Reports, 2017).

The subject of experiment [1] is T1, α-subunit containing GABAA receptor (GABAAR) from human amygdala.
T1 construct: gene GABRA1
The format is cell-based. Particulars: antagonist against 50 μmol/L GABA; pH 7.4, room temperature.

Experiment [2] shares this test system. The following applies: agonist; -70 mV, pH 7.4, room temperature.

pEC50, pIC50: −log10 of the molar value.

In the case of `CN1CCc2cc3c(cc2[C@H]1[C@@H]1OC(=O)c2c1ccc1c2OCO1)OCO3` [bicuculline], the pIC50 – broadly, the IC50 on a negative log10 scale, so that one unit is a factor of ten – in experiment [1] was 5.10.

On to `NCc1cc(O)no1` [muscimol], for which the pEC50 (commonly the EC50 on a negative log10 scale, so that one unit is a factor of ten) in experiment [2] is 4.35.
